Data: US20120270908A1, “SUBSTITUTED 3 -HYDROZYPYRIDINES AND PHARMACEUTICAL COMPOSITIONS THEREOF” (priority 2007, published 2012)

Tests used:
insulin receptor = target: T1, insulin receptor (Homo sapiens, UniProt P06213); experiment: Activation of insulin receptor in HepG2 cells: phosphorylation of tyrosine residues 1162/1163, PhosphoDetect insulin receptor ELISA kit; format: cell-based; conditions: 10 min, PBS with 5 mM glucose, percentage of the response to 100 nM insulin, mean±SEM (n=8)
T1 construct: endogenous in cells; host or cells: HepG2 (human hepatoma)
T1 sequence (P06213 28-758 limits assumed): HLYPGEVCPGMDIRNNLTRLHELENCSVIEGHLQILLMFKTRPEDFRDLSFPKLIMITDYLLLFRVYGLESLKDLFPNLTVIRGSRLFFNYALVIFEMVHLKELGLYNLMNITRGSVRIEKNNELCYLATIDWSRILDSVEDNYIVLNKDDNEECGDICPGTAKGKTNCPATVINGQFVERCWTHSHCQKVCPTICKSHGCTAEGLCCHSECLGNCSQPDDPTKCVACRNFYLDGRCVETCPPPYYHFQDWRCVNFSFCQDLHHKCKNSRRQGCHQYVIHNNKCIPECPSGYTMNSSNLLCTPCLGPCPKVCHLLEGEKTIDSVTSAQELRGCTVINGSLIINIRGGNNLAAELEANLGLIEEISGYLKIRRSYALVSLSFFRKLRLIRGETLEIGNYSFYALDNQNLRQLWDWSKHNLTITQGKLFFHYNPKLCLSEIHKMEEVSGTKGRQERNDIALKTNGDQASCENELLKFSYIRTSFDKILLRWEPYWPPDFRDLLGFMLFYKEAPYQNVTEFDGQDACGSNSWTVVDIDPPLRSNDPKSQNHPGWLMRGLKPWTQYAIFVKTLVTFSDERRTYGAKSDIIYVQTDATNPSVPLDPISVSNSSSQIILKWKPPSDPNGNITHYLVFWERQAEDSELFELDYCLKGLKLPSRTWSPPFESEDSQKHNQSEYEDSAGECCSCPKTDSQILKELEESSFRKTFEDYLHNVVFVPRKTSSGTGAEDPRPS
T1 sequence (P06213 763-1382 limits assumed): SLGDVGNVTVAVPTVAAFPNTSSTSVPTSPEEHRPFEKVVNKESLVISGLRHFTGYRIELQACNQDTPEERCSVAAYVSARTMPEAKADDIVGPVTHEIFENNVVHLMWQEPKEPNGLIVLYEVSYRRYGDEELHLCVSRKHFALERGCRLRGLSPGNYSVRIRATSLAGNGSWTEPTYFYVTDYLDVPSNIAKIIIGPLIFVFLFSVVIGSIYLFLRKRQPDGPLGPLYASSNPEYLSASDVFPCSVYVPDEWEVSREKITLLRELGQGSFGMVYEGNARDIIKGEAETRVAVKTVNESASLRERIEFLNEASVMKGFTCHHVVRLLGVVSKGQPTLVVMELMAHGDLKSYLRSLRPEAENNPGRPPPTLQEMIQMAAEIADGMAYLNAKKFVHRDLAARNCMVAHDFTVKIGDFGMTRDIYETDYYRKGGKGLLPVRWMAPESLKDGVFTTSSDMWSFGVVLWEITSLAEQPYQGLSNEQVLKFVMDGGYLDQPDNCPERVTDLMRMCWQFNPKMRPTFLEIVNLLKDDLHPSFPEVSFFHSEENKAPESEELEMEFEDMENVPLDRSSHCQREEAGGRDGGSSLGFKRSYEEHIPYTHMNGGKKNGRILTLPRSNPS
Source text: It is generally recognized that the phosphorylation increase activity of receptor to about 200-fold as compared to unphosphorylated one.

[1] = system: streptozotocin-induced male albino Wistar rats; experiment: Streptozotocin-induced decompensated insulin resistance in rats: fasting serum glucose, plasma insulin, plasma triglycerides; format: in vivo; conditions: mean±SEM (n=10); for Glucose: fasting serum; for Insulin / Triglycerides: plasma
Method: The rats with glucose levels more than 14.0 mmol/1 were used in the experiment one week after the streptozotocin injection.
Streptozotocin-induced rats were assigned to three groups: a control rats (n=10) and experimental rats (n=20). Control rats received daily i.p. injections of saline for 7 days. Experimental rats received daily i.p. injections of 10 mg/kg 2-Ethyl-4,6-dimethyl-3-hydroxypyridine, succinic acid salt (1:1); or 2-Ethyl-4,5,6-trimethyl-3-hydroxypyridine, succinic acid salt (1:1) for 7 days. Biochemical parameters were determined just before start of the treatment and on 14 day from the start of the treatment.

[2] = 14 Day from start, 10 mg/kg i.p. daily for 7 days
[3] = before treatment (baseline of the group)

SMILES | Insulin receptor phosphorylation, % (insulin receptor; compound 50 μM alone) | Insulin receptor phosphorylation, % (insulin receptor; insulin 5 nM + compound 50 μM) | Glucose [1, 2] | Glucose [1, 3] | Insulin [1, 2] | Triglycerides [1, 2] | Insulin [1, 3] | Triglycerides [1, 3]
CCc1nc(C)cc(C)c1O.O=C(O)CCC(=O)O [2-Ethyl-4,6-dimethyl-3-hydroxypyridine, succinic acid salt (1:1)] | 14 ± 4% | 56 ± 7 % | 8.5 ± 1.3 mmol/L | 15.9 ± 2.1 mmol/L | 2.9 ± 0.4 ng/mL | 1.8 ± 0.4 mmol/L | 11.2 ± 1.7 ng/mL | 2.9 ± 0.4 mmol/L
CCc1nc(C)c(C)c(C)c1O.O=C(O)CCC(=O)O [2-Ethyl-4,5,6-trimethyl-3-hydroxypyridine, succinic acid salt (1:1)] | 13 ± 2% | 62 ± 8 % | 7.3 ± 1.1 mmol/L | 16.0 ± 2.6 mmol/L | 2.3 ± 0.5 ng/mL | 1.6 ± 0.3 mmol/L | 11.4 ± 2.0 ng/mL | 3.1 ± 0.2 mmol/L
